Entries after “also recorded” stand apart in the source; their conditions may differ. Where a name gives a salt, the structure may show the parent alone. Read-outs that look alike come from different tables or passages of the source.
Legend:
[1] = test system: patients with multiple sclerosis; conditions: cited from earlier work
[2] = test system: patients with neurological conditions; conditions: meta-analysis, variety of neurological conditions; cited from earlier work
[3] = test system: human volunteers deprived of sleep; assay: Fusion Frequency in volunteers deprived of sleep during 24 h; assay type: in vivo; conditions: 30 mg once a day
Method: Pitolisant hydrochloride was administered once a day at a dose of 30 mg in human volunteers deprived of sleep during 24 h. Fatigue evaluated in these volunteers by the Fusion Frequency was not modified by either placebo or pitolisant at this dose.

healthy volunteers [4] = assay: Adverse effect study at high doses in healthy volunteers; assay type: in vivo, human
Method: (§1) A group of 24 healthy volunteers received placebo or pitolisant monohydrochloride mg at doses of 160, 200 or 240 mg. This last dose corresponds to 6 times the maximum dosage recommended in narcolepsy.
Furthermore, the rare abnormalities were reported in all treatment groups.

healthy volunteers [5] = assay: Wakefulness assessed by Spectral EEG in healthy volunteers; assay type: in vivo, human; conditions: 40 mg
[6] = Blood levels of pitolisant and metabolites in healthy volunteers; assay type: in vivo, human; conditions: 160, 200 or 240 mg, blood samples
Method: as §1

healthy volunteers [7] = assay: Critical Flicker Fusion Test (CFFT) in healthy volunteers; assay type: in vivo, human; conditions: for Fusion Frequency (Flicker Fusion Test), fatigue: end of the day, healthy volunteers
Excerpt: The flicker fusion frequency (F.F.F.) is defined as the frequency, in flickers per second, at which an interrupted light appears as a steady light. It has been established that the score made in such tests can be used as a measure of fatigue (Luczak A, et al. Ergonomics, 2005 Dec. 15; 48 (15):1770-92; Ma et al PLOS One, 2014 Feb. 5; 9 (2):e87121; Maeda et al Jpn J Radiol. 2011 August; 29 (7):483-7).
In human healthy volunteers, fatigue can be evaluated at the end of the day, when fatigue tends to increase, using a known psychometric test, the Flicker Fusion Test as reported by Luczak A, et al. Ergonomics, 2005 Dec. 15; 48 (15):1770-92; Ma et al PLOS One, 2014 Feb. 5; 9 (2):e87121; Maeda et al Jpn J Radiol. 2011 August; 29 (7):483-7.
In a group of 36 healthy volunteers, the change in Fusion Frequency was evaluated at several times along the day and after administration of either placebo or pitolisant monohydrochloride at increasing dosages (20, 40 or 60 mg).

[8] = test system: patients with Obstructive Sleep Apnea (OSA); conditions: 20 mg od, cited from earlier work
patients with narcolepsy = conditions: 20 to 40 mg once a day, cited from earlier work
histamine H3 receptors = target: T1, histamine H3 receptors (Homo sapiens, UniProt Q9Y5N1); conditions: 40 mg, cited from earlier work
T1 construct: Brain Histamine H3 Receptors Occupancy; from tissue; host or cells: living human brain (in vivo PET); value cited from Rusjan et al., Br J Pharmacol 2020
T1 sequence (Q9Y5N1 whole entry): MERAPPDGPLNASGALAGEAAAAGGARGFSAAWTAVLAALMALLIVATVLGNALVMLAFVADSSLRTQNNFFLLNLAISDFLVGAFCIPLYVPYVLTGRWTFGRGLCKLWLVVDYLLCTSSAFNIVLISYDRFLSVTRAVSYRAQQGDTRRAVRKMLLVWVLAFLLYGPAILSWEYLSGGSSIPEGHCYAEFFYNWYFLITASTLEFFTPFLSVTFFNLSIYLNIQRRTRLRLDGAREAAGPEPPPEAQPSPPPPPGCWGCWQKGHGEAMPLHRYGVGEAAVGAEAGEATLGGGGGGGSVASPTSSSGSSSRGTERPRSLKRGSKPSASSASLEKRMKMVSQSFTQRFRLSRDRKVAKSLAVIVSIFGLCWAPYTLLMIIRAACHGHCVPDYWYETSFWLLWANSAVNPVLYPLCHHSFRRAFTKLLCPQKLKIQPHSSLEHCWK

[9] = 160, 200 or 240 mg, healthy volunteers

For `NC12CC3CC(CC(C3)C1)C2` [Amantadine, amantadine], which “Adverse events versus placebo” value [1] is on record?
The value was “more frequent adverse events”.

And the “Improving multiple sclerosis fatigue versus placebo” value [1]?
The value was “not superior to placebo”.

With `COC(=O)C(c1ccccc1)C1CCCCN1` (stereo not shown) [methylphenidate] as the molecule, how does the “Adverse events versus placebo” value [1] read?
Its value is “more frequent adverse events”.

What about the “Improving multiple sclerosis fatigue versus placebo” value [1] of the same molecule?
The value was “not superior to placebo”.

What does the source list for `NC(=O)C[S+]([O-])C(c1ccccc1)c1ccccc1` (stereo not shown) [modafinil]?
Adverse events versus placebo [1]: more frequent adverse events; Improving multiple sclerosis fatigue versus placebo [1]: not superior to placebo; Effect on EDS [2]: generally effective; Effect on fatigue [2]: without clear effect

What does the source list for `Clc1ccc(CCCOCCCN2CCCCC2)cc1` [pitolisant monohydrochloride]?
Fatigue evaluated by the Fusion Frequency ([3]; listed as Pitolisant hydrochloride): not modified; Number and nature of adverse events versus placebo (healthy volunteers [4]; [9]): did not differ; Wakefulness by Spectral EEG (healthy volunteers [5]): improved significantly; Blood level of pitolisant and metabolites [6]: dose proportionality; Fusion Frequency (Flicker Fusion Test), fatigue (healthy volunteers [7]; 60 mg orally): reversed the alteration; Fusion Frequency (Flicker Fusion Test), fatigue (healthy volunteers [7]; 60 mg orally, listed as pitolisant hydrochloride): significantly improved; Flicker Fusion Test, fatigue (conclusion) (healthy volunteers [7]; 30 to 40 mg treatment, conclusion over examples 1 and 2): not improved; Fusion Frequency (Flicker Fusion Test), fatigue (healthy volunteers [7]; lower doses (20, 40 mg)): failed. to provide a significant change; SF evaluated with the Pichot scale ([8]; OSA, trial of Dauvilliers et al. 2020): statistically different from placebo; EDS in patients with OSA ([8]; two trials): reduced; EDS and cataplexy in patients with narcolepsy (patients with narcolepsy; listed as Pitolisant monohydrochloride): shown to improve; Occupancy of histamine H3 receptors (mean±SD) (histamine H3 receptors; PET scan, healthy volunteers): 84±7%; Occupancy of the brain histamine H3-receptors (in words) (histamine H3 receptors): high occupancy

What does the source list for `Clc1ccc(CCCOCCCN2CCCCC2)cc1` [pitolisant, 3-(4-Chlorophenyl) propyl 3-piperidinopropyl ether]?
Fatigue evaluated by the Fusion Frequency [3]: not improved; Safety and tolerability (healthy volunteers [4]; 160 mg, 200 mg and 240 mg (doses up to 240 mg od)): without overt adverse effect; also recorded: safe and well tolerated; Laboratory parameters, vital signs, physical examination and ECG parameters (healthy volunteers [4]; [9]): No significant abnormalities; EDS and cataplexy in patients with narcolepsy (patients with narcolepsy): significant effect

Source: patent US20250205215A1, “NOVEL USE OF PITOLISANT FOR TREATING SEVERE FATIGUE” (BIOPROJET, priority 2022, published 2025)
